Assay results taken from patent US20260242372A1, “NOVEL IMIDAZOPYRIDINE AND PYRAZOLOPYRIDINE SULFONAMIDE DERIVATIVES” (Hoffmann-La Roche Inc., priority 2022, published 2026).

Target: human GPR17 short isoform (Homo sapiens, UniProt Q13304)
Experiment: GPR17 cAMP assay (hGPR17 cAMP, TR-FRET, antagonist mode)
Type: cell-based
Details: CHO-K1 cells stably expressing human GPR17 short isoform; EC80 of agonist MDL29,951; forskolin 15 μM; 30 min at room temperature
Description: CHO-K1 cells stably expressing vector containing untagged human GPR17 short isoform (Roche) were cultured at 37° C./5% CO2 in DMEM (Dulbecco's Modified Eagle Medium): F-12 (1:1) supplemented with 10% foetal bovine serum and 400 μg/ml Geneticin.
Changes in intracellular cyclic adenosine monophosphate (cAMP) levels were quantified using the Nano-TRF Detection Assay kit (Roche Diagnostics, Cat. No. 05214386001). This assay allows for direct cAMP quantification in a homogeneous solution. CAMP is detected based on time-resolved fluorescence energy transfer (TR-FRET) and competitive binding of ruthenylated cAMP and endogenous cAMP to an anti-cAMP monoclonal antibody labeled with AlexaFluor-700. The Ruthenium complex serves as the FRET donor and transfers energy to AlexaFluor-700. The FRET signal is inversely proportional to the CAMP concentration.
CHO-GPR17S cells were detached with Accutase and resuspended in assay buffer consisting of Hank's Balanced Salt Solution (HBSS), 10 mM HEPES (4-(2-hydroxyethyl) piperazine-1-ethanesulfonic acid solution) and 0.1% bovine serum albumin (pH 7.4). The cells were seeded in black 384-well plates (Corning) at a density of 10′000 cells/20 μl assay buffer until the addition of compounds.
Test antagonist compounds were serially diluted in dimethyl sulfoxide (DMSO) and spotted in 384-well plates. The compounds were then diluted in HBSS buffer supplemented with an EC80 concentration of MDL29,951 (3-(2-Carboxy-4,6-dichloroindol-3-yl) propionic acid) (GPR17 agonist) plus 3-Isobutyl-1-methylxanthine (IBMX) (0.5 mM final concentration) and added to the cells at room temperature. Forskolin (15 μM final concentration) was added 5 minutes after the test compounds and the cells were incubated at room temperature for 30 minutes. The assay was stopped by adding cAMP detection mix (containing detergents for cell lysis) for 90 minutes at room temperature.
Cellular cAMP was measured using a Paradigm reader (Molecular Devices). The raw data was used to calculate the FRET signal based on the assay's P-factor as per cAMP kit instructions. The data was normalized to the maximal activity of a reference antagonist and dose response curves were fitted to the percent activity of the test compounds using a sigmoidal dose response model (Genedata Screener).

human GPR17 short isoform, sequence (Q13304 29-367): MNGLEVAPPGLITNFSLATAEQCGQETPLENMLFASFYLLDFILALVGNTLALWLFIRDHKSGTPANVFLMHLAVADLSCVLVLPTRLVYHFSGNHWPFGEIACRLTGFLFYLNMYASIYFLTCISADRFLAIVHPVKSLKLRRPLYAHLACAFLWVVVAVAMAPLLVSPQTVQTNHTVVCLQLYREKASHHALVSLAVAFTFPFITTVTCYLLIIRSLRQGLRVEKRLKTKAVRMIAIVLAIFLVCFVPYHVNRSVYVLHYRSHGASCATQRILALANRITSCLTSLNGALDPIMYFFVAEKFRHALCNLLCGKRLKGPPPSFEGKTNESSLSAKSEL

Point of comparison: `COc1cc(CC#N)c(F)cc1NS(=O)(=O)c1cnc2cc(C)ccn12` [Example 20, N-[4-(cyanomethyl)-5-fluoro-2-methoxy-phenyl]-7-methyl-imidazo[1,2-a]pyridine-3-sulfonamide], IC50 21 nM. Against it:
- COc1nc(OCC(F)F)c(F)cc1NS(=O)(=O)c1cnc2cc(Br)ccn12 [Example 1, 7-bromo-N-[6-(2,2-difluoroethoxy)-5-fluoro-2-methoxy-3-pyridyl]imidazo[1,2-a]pyridine-3-sulfonamide] — 4.2-fold lower, 5 nM
- COc1nc(OCC(F)F)c(F)cc1NS(=O)(=O)c1cnc2cc(C)ccn12 [Example 2, N-[6-(2,2-difluoroethoxy)-5-fluoro-2-methoxy-3-pyridyl]-7-methyl-imidazo[1,2-a]pyridine-3-sulfonamide] — 3-fold lower, 7 nM
- COc1cc(CC#N)c(F)cc1NS(=O)(=O)c1cnc2cc(Br)ccn12 [Example 3, 7-bromo-N-[4-(cyanomethyl)-5-fluoro-2-methoxy-phenyl]imidazo[1,2-a]pyridine-3-sulfonamide] — 3-fold lower, 7 nM
- COc1nc(OCC(F)F)c(F)cc1NS(=O)(=O)c1cnc2c(OC)c(C)ccn12 [Example 4, N-[6-(2,2-difluoroethoxy)-5-fluoro-2-methoxy-3-pyridyl]-8-methoxy-7-methyl-imidazo[1,2-a]pyridine-3-sulfonamide] — 2.6-fold lower, 8 nM
- COc1nc(OCC(F)F)c(F)cc1NS(=O)(=O)c1cnc2cc(OC(F)F)ccn12 [Example 5, N-[6-(2,2-difluoroethoxy)-5-fluoro-2-methoxy-3-pyridyl]-7-(difluoromethoxy)imidazo[1,2-a]pyridine-3-sulfonamide] — 2.6-fold lower, 8 nM
- COc1nc(OCC(F)F)c(F)cc1NS(=O)(=O)c1cnc2c(F)c(Cl)ccn12 [Example 7, 7-chloro-N-[6-(2,2-difluoroethoxy)-5-fluoro-2-methoxy-3-pyridyl]-8-fluoro-imidazo[1,2-a]pyridine-3-sulfonamide] — 2.3-fold lower, 9 nM
- COc1nc(OC(F)F)c(F)cc1NS(=O)(=O)c1cnc2cc(Br)ccn12 [Example 8, 7-bromo-N-[6-(difluoromethoxy)-5-fluoro-2-methoxy-3-pyridyl]imidazo[1,2-a]pyridine-3-sulfonamide] — 2.3-fold lower, 9 nM
- COc1nc(CCC(F)F)c(F)cc1NS(=O)(=O)c1cnc2cc(Cl)ccn12 [Example 9, 7-chloro-N-[6-(3,3-difluoropropyl)-5-fluoro-2-methoxy-3-pyridyl]imidazo[1,2-a]pyridine-3-sulfonamide] — 1.9-fold lower, 11 nM
- COc1nc(NS(=O)(=O)c2cnc3cc(Br)ccn23)c(F)cc1CC(F)F [Example 10, 7-bromo-N-[5-(2,2-difluoroethyl)-3-fluoro-6-methoxy-2-pyridyl]imidazo[1,2-a]pyridine-3-sulfonamide] — 1.9-fold lower, 11 nM
- COc1nc(CC(F)F)c(F)cc1NS(=O)(=O)c1cnc2cc(Cl)ccn12 [Example 11, 7-chloro-N-[6-(2,2-difluoroethyl)-5-fluoro-2-methoxy-3-pyridyl]imidazo[1,2-a]pyridine-3-sulfonamide] — 1.5-fold lower, 14 nM
- COc1nc(OCC(F)F)c(F)cc1NS(=O)(=O)c1cnc2c(OC)c(Cl)ccn12 [Example 12, 7-chloro-N-[6-(2,2-difluoroethoxy)-5-fluoro-2-methoxy-3-pyridyl]-8-methoxy-imidazo[1,2-a]pyridine-3-sulfonamide] — within 1.5-fold, 16 nM
- COc1nc(OC(F)F)c(F)cc1NS(=O)(=O)c1cnc2cc(C)ccn12 [Example 13, N-[6-(difluoromethoxy)-5-fluoro-2-methoxy-3-pyridyl]-7-methyl-imidazo[1,2-a]pyridine-3-sulfonamide] — within 1.5-fold, 18 nM
- COc1nc(OCC(F)F)c(F)cc1NS(=O)(=O)c1cnc2cc(C(F)F)ccn12 [Example 14, N-[6-(2,2-difluoroethoxy)-5-fluoro-2-methoxy-3-pyridyl]-7-(difluoromethyl)imidazo[1,2-a]pyridine-3-sulfonamide] — within 1.5-fold, 18 nM
- COc1ccn2c(S(=O)(=O)Nc3cc(F)c(OCC(F)F)nc3OC)cnc2c1 [Example 15, N-[6-(2,2-difluoroethoxy)-5-fluoro-2-methoxy-3-pyridyl]-7-methoxy-imidazo[1,2-a]pyridine-3-sulfonamide] — within 1.5-fold, 18 nM
- COc1nc(OCC(F)F)c(F)cc1NS(=O)(=O)c1cnc2nc(C3CC3)ccn12 [Example 16, 7-cyclopropyl-N-[6-(2,2-difluoroethoxy)-5-fluoro-2-methoxy-3-pyridyl]imidazo[1,2-a]pyrimidine-3-sulfonamide] — within 1.5-fold, 18 nM
- CCc1ccn2c(S(=O)(=O)Nc3cc(F)c(OCC(F)F)nc3OC)cnc2c1 [Example 17, N-[6-(2,2-difluoroethoxy)-5-fluoro-2-methoxy-3-pyridyl]-7-ethyl-imidazo[1,2-a]pyridine-3-sulfonamide] — within 1.5-fold, 18 nM
- COc1cc(CC#N)c(F)cc1NS(=O)(=O)c1cnc2nc(C3CC3)ccn12 [Example 18, N-[4-(cyanomethyl)-5-fluoro-2-methoxy-phenyl]-7-cyclopropyl-imidazo[1,2-a]pyrimidine-3-sulfonamide] — within 1.5-fold, 19 nM
- COc1nc(OC(F)F)c(F)cc1NS(=O)(=O)c1cnc2c(OC)c(C)ccn12 [Example 19, N-[6-(difluoromethoxy)-5-fluoro-2-methoxy-3-pyridyl]-8-methoxy-7-methyl-imidazo[1,2-a]pyridine-3-sulfonamide] — within 1.5-fold, 19 nM
- COc1nc(NS(=O)(=O)c2cnc3cc(Br)ccn23)c(F)cc1CC#N [Example 21, 7-bromo-N-[5-(cyanomethyl)-3-fluoro-6-methoxy-2-pyridyl]imidazo[1,2-a]pyridine-3-sulfonamide] — the same, 21 nM
- COc1nc(CC#N)c(F)cc1NS(=O)(=O)c1cnc2cc(Cl)ccn12 [Example 22, 7-chloro-N-[6-(cyanomethyl)-5-fluoro-2-methoxy-3-pyridyl]imidazo[1,2-a]pyridine-3-sulfonamide] — within 1.5-fold, 23 nM
- COc1nc(OCC(F)F)c(F)cc1NS(=O)(=O)c1cnc2n1CCC(C)C2 (stereo not shown) [Example 23, N-[6-(2,2-difluoroethoxy)-5-fluoro-2-methoxy-3-pyridyl]-7-methyl-5,6,7,8-tetrahydroimidazo[1,2-a]pyridine-3-sulfonamide] — within 1.5-fold, 23 nM
- COc1nc(NS(=O)(=O)c2cnc3cc(Cl)ccn23)c(F)cc1CC(F)F [Example 24, 7-chloro-N-[5-(2,2-difluoroethyl)-3-fluoro-6-methoxy-2-pyridyl]imidazo[1,2-a]pyridine-3-sulfonamide] — within 1.5-fold, 23 nM
- COc1nc(C2CC2)c(F)cc1NS(=O)(=O)c1cnc2cc(Cl)ccn12 [Example 25, 7-chloro-N-(6-cyclopropyl-5-fluoro-2-methoxy-3-pyridyl)imidazo[1,2-a]pyridine-3-sulfonamide] — within 1.5-fold, 23 nM
- COc1nc(NS(=O)(=O)c2cnc3cc(Br)ccn23)c(F)cc1OC(F)F [Example 26, 7-bromo-N-[5-(difluoromethoxy)-3-fluoro-6-methoxy-2-pyridyl]imidazo[1,2-a]pyridine-3-sulfonamide] — within 1.5-fold, 30 nM
- COc1nc(OCC(F)F)c(F)cc1NS(=O)(=O)c1cnc2c(C#N)c(C)ccn12 [Example 27, 8-cyano-N-[6-(2,2-difluoroethoxy)-5-fluoro-2-methoxy-3-pyridyl]-7-methyl-imidazo[1,2-a]pyridine-3-sulfonamide] — within 1.5-fold, 31 nM
- COc1nc(OC(F)F)c(F)cc1NS(=O)(=O)c1cnc2nc(C3CC3)ccn12 [Example 28, 7-cyclopropyl-N-[6-(difluoromethoxy)-5-fluoro-2-methoxy-3-pyridyl]imidazo[1,2-a]pyrimidine-3-sulfonamide] — within 1.5-fold, 31 nM
- COc1ccn2c(S(=O)(=O)Nc3cc(F)c(OC(F)F)nc3OC)cnc2c1 [Example 29, N-[6-(difluoromethoxy)-5-fluoro-2-methoxy-3-pyridyl]-7-methoxy-imidazo[1,2-a]pyridine-3-sulfonamide] — 1.6-fold higher, 33 nM
- COc1nc(OCC(F)F)c(F)cc1NS(=O)(=O)c1cnc2n1CCC(C)C2C (stereo not shown) [Example 30, N-[6-(2,2-difluoroethoxy)-5-fluoro-2-methoxy-3-pyridyl]-7,8-dimethyl-5,6,7,8-tetrahydroimidazo[1,2-a]pyridine-3-sulfonamide] — 1.7-fold higher, 35 nM
- COc1nc(OCC(F)F)c(F)cc1NS(=O)(=O)c1cnc2cc(C(F)(F)F)ccn12 [Example 31, N-[6-(2,2-difluoroethoxy)-5-fluoro-2-methoxy-3-pyridyl]-7-(trifluoromethyl)imidazo[1,2-a]pyridine-3-sulfonamide] — 1.8-fold higher, 38 nM
- COc1c(C)ccn2c(S(=O)(=O)Nc3cc(F)c(CC#N)cc3F)cnc12 [Example 32, N-[4-(cyanomethyl)-2,5-difluoro-phenyl]-8-methoxy-7-methyl-imidazo[1,2-a]pyridine-3-sulfonamide] — 1.9-fold higher, 40 nM
